# Assay results from article PMC2882366 (PLoS ONE, 2010).
# Where two headings read alike, the source gives them in different places.
# Tests used:
# p/t-S6RP in PBMC = assay: PBMC p-S6RP/t-S6RP by electrochemiluminescence; assay type: in vivo, dog
# Description: Modulation of mTOR pathway targets were evaluated in matched tumor ( Figure 4A .) and PBMC samples ( Figure 4B .) to compare p-S6RP and p-AKT expression pre- and post-rapamycin treatment. ECL techniques were utilized to accurately quantify the relative percentage of phospho-protein over total protein (p/t) in tumor and PBMC. Quality control assessments defined 10 tumor and 8 PBMC samples eligible for evaluation. […] Modulation of mTOR pathway targets in PBMC and tumor samples were concordant.
# PBMCS were collected in two (2) 8 ml BD CPT vacutainers (Becton Dickinson, Franklin Lakes, NJ) with sodium heparin, each filled completely with whole blood. […]
# The samples (cell lines, tumor, PBMC) used for ECL were prepared based on the Meso-Scale Discovery (MSD) lysate preparation protocol (Meso-Scale Discovery, Gaithersburg, MD) using complete lysis buffer with protease and phosphatase inhibitors. For quantitative analysis of phospho-proteins, duplex t/p-AKT (S473) and duplex t/p-S6RP (S240/S244) were obtained from MSD, used following manufacturer's instructions, and read with Sector Imager 2400 (MSD). […] Out of the 19 paired tumor biopsies analyzed, 9 were excluded due to values below the detection limit, of which 8 were from one trial site. […] PBMC from 8 patients were analyzed for p-S6RP/t-S6RP and all data was shown.
# [1] = tested on: p-S6RP in canine osterosarcoma cell lines (BM, SK); assay: Immunoblot of p-S6RP in canine osteosarcoma cell lines; assay type: cell-based; conditions: 100 nM, BM and SK cells
# Description: (§1) Protein concentration of lysates was determined by BCA protein assay (Pierce, Thermo Fischer Scientific, Rockford, IL). Lysates were separated with Invitrogen NuPage gels (Invitrogen, Carlsbad, CA) and transferred to nitrocellulose membranes. The blots were probed for the proteins of interest with specific antibodies followed by a secondary antibody (Cell Signaling Technology, Inc, Danvers, MA) and then incubated with SuperSignal chemiluminescence substrate (Pierce). The blots were then exposed to Kodak Biomax Light Film (Kodak, Rochester, NY). The antibodies against AKT and p-AKT (Ser473), S6RP and p-S6RP, and actin were obtained from Cell Signaling.
# (§2) Controls were Jurkat cells treated with LY (−) or PMA (+). B. Quantitative determination of total and p-S6RP (S240/244) with electrochemiluminescence (ECL) assay. C. […] (1.56 MB TIF) Click here for additional data file.
# [2] = tested on: p-S6RP in human breast cancer cell lines (MCF7 and MDA231); assay: Immunoblot of p-S6RP in human breast cancer cell lines; assay type: cell-based; conditions: 100 nM, MCF7 and MDA231 cells
# Description: as §1, §2
# [3] = tested on: dogs with appendicular osteosarcoma
# Description: All dogs underwent a pre-treatment tumor biopsy and collection of PBMC at study initiation. […] The defined study period was 15 days. Safety, tumoral pharmacodynamic (PD) modulation, correlation to surrogates (PBMC), and the relationship between PK and PD were study endpoints.
# Escalation through 5 planned dose cohorts was based on assessment of dose limiting toxicities (DLT) using VCOG modified-CTCAE convention [32]. Age (range, 3.7–11.9 years; median 7.9 years), sex (14 spayed females, 8 castrated males) and breed (5 mixed-breed and 17 purebred) were recorded for all dogs enrolled on study ( Table 3 : Patient Characteristics).
# Dogs underwent a complete physical examination, CBC, serum biochemical profile, UA and pre-treatment biopsies at Day 0. Vital signs (core temperature, pulse, respiratory rate) were recorded at baseline. […] Owners completed an Owner Assessment Form on Days 0, 8 and 15 to record impressions of their dog's clinical status throughout the study period.
# Blood samples were collected to define hematologic and biochemical DLT. CBC, biochemical profile and urinalysis were evaluated at Day 0, and then weekly (pre-operatively at Day 8 and Day 15) to define safety. The Veterinary Cooperative Oncology Group Common Toxicity Criteria for Adverse Events (VCOG-CTCAE) was used to determine DLT, defined as any grade 3 or grade 4 (hematologic or non-hematologic) events [32]. […] MTD was defined as one dose level below the maximum achieved in dose-escalation. Any and all adverse events were collected within the electronic database reporting system (C3D) following strict one-week reporting timelines.
# [4] = Rapamycin whole blood pharmacokinetics (HPLC-MS/MS, non-compartmental) in dogs with osteosarcoma; assay type: in vivo, dog; conditions: for measurable trough levels: CD8, CD9; for concentration at 15 day / concentration at 8 day / concentration at 9 day / concentration at 48 h / Tmax / half-life / Cmax / AUC(0-t): dog, whole blood; for concentration at 15 day / concentration at 8 day / concentration at 9 day / concentration at 48 h: intramuscular; for concentration at 15 day: Day 15 (seven days after cessation), read-out: CD15; for concentration at 8 day: trough Day 8, median (range), read-out: CD8; for concentration at 9 day: trough Day 9, median (range), read-out: CD9; for concentration at 48 h: 48 h after first dose, read-out: C48h; for AUC(0-t): read-out: AUC0–48
# Description: Subsequent doses were administered on days 3–8. Additional pharmacokinetic samples were obtained on days 8 (192h, day of definitive resection) and 9 (hr 216, after last day of dosing) and 15 (360 hr). […] Whole blood was transferred to cyrovials and stored at −80°C until analysis. Whole blood, serum and plasma were collected from all patients. Serum and plasma samples were stored for post-hoc hypothesis generating assessments.
# The eluate was analyzed using HPLC with MS/MS detection. […] Clinical sample results were calculated using peak area ratios and calibration curves were generated using a weighted (1/x^2) linear least-squares regression. […] All data were acquired, processed, and reported using Applied Biosystems/MDS-Sciex Analyst Version 1.4 software (www.lifetechnologies.com, Carlsbad, CA).
# Area under the concentration time curve to the time point measured at 48hr after the first dose (AUC0–48h) was calculated with the linear trapezoidal method. The terminal rate constant was derived from the slope of the natural log transformed concentrations and times on the terminal elimination phase of the decay curve. Terminal elimination half-life was calculated by dividing 0.693 by the terminal rate constant. The relationship of pharmacokinetic parameters and pharmacodynamic variables were examined using scatter plots.
# [5] = tested on: p/t-S6RP (S240/244) in canine osteosarcoma cell lines (BW and SK); assay: ECL quantification of p/t-S6RP in canine osteosarcoma cell lines; assay type: cell-based
# Description: as §1
# The samples (cell lines, tumor, PBMC) used for ECL were prepared based on the Meso-Scale Discovery (MSD) lysate preparation protocol (Meso-Scale Discovery, Gaithersburg, MD) using complete lysis buffer with protease and phosphatase inhibitors. For quantitative analysis of phospho-proteins, duplex t/p-AKT (S473) and duplex t/p-S6RP (S240/S244) were obtained from MSD, used following manufacturer's instructions, and read with Sector Imager 2400 (MSD). A total of 25 ug of lysates were used per well for the duplex assays. Out of the 19 paired tumor biopsies analyzed, 9 were excluded due to values below the detection limit, of which 8 were from one trial site. […] PBMC from 8 patients were analyzed for p-S6RP/t-S6RP and all data was shown. […]
# [6] = both, various breeds (5 mixed-breed and 17 purebred dogs), dog, in vivo, 15 days
# [7] = Mixed Breed (2 dogs), Boxer (1 dog), 0.04 mg/kg IM daily, N=3
# [8] = Mixed Breed (2 dogs), Boxer (1 dog), 0.04 mg/kg IM, after first dose, median (range), N=3
# [9] = 0.01 mg/kg IM, after first dose, median (range), N=3
# [10] = 0.06 mg/kg IM, after first dose, median (range), N=7
# [11] = 0.08 mg/kg IM, after first dose, median (range), N=4
# [12] = 0.02 mg/kg IM, after first dose, median (range), N=4
smiles,measurement,setting,value
"CO[C@H]1C[C@@H]2CC[C@@H](C)[C@@](O)(O2)C(=O)C(=O)N2CCCC[C@H]2C(=O)O[C@H]([C@H](C)C[C@@H]2CC[C@@H](O)[C@H](OC)C2)CC(=O)[C@H](C)/C=C(\C)[C@@H](O)[C@@H](OC)C(=O)[C@H](C)C[C@H](C)/C=C/C=C/C=C/1C [rapamycin, Rapamycin]",PBMC p/t-S6RP inhibition,"p/t-S6RP in PBMC; Day 8, maintained through Day 15, n = 8, p<0.0001",highly significant
same,dogs with PBMC phosphorylation of S6RP significantly inhibited,p/t-S6RP in PBMC; Day 8 after rapamycin therapy,8/8
same,rapamycin-mediated inhibition of p-S6RP (immunoblot),[1],inhibition of p-S6RP
same,rapamycin-mediated inhibition of p-S6RP (immunoblot),[2],inhibition of p-S6RP
same,"anorexia, self-limiting non-dose limiting toxicity (grade 1,2), number of dogs",[3]; [6],2
same,"diarrhea, self-limiting non-dose limiting toxicity (grade 1,2), number of dogs",[3]; [6],1
same,"thrombocytopenia, self-limiting non-dose limiting toxicity (grade 1,2), number of dogs",[3]; [6],1
same,"vomiting, self-limiting non-dose limiting toxicity (grade 1,2), number of dogs",[3]; [6],2
same,febrile episodes reported,"[3]; dog, in vivo",two
same,immunosuppression and surgical incision healing delays,"[3]; dog, in vivo",Neither immunosuppression nor surgical incision healing delays were reported
same,"lymphopenia, post-operative infection rate, surgical incision healing delays","[3]; dog, in vivo","no evident lymphopenia, increased post-operative infection rate, nor surgical incision healing delays"
same,"neurological, respiratory, renal, or biochemical toxicities related to treatment","[3]; dog, in vivo",no clinically significant
same,tolerability of dose escalation,"[3]; dog, in vivo",well tolerated
same,maximally tolerated dose (MTD),"[3]; escalation to 0.08 mg/kg IM daily, n = 19",not defined
same,"median trough concentrations on day 8 and 9 (CD8, CD9)",[4]; 0.06 mg/kg (approx 2.1 mg/day) IM daily,greater than 10 ng/mL
same,"median trough concentrations on day 8 and 9 (CD8, CD9)",[4]; 0.08 mg/kg (approx 2.8 mg/day) IM daily,greater than 10 ng/mL
same,measurable trough levels,"[4]; 4th dose cohort (0.06 mg/kg, approx 2.1 mg)",≥ 10 ng/mL
same,measurable trough levels,"[4]; 5th dose cohort (0.08 mg/kg, approx 2.8 mg)",≥ 10 ng/mL
same,concentration at 15 day,"[4]; Mixed Breed (2 dogs), Boxer (1 dog), 0.04 mg/kg IM daily, median (range), N=3",1.56 ng/mL
same,concentration at 8 day,[4]; [7],6.62 ng/mL
same,concentration at 9 day,[4]; [7],7.92 ng/mL
same,concentration at 48 h,"[4]; Mixed Breed (2 dogs), Boxer (1 dog), 0.04 mg/kg IM, median (range), N=3",1.86 ng/mL
same,Tmax,[4]; [8],24 h
same,half-life,"[4]; Mixed Breed (2 dogs), Boxer (1 dog), 0.04 mg/kg IM, terminal half-life, median (range), N=3, read-out: T1/2 (converted)",62.7 h
same,Cmax,[4]; [8],2.87 ng/mL
same,AUC(0-t),[4]; [8],105 ng·h/mL
same,Steady state,"[4]; after 8 days of exposure, daily IM",not achieved
same,Tmax,"[4]; both sexes, all dogs, 0.01–0.08 mg/kg IM, range",2 to 48 h
same,half-life,"[4]; both sexes, dogs, IM, read-out: terminal half-life",> 60 h
same,half-life,"[4]; im, 0.01 mg/kg, read-out: T1/2 (converted)",115 h
same,concentration at 15 day,"[4]; 0.01 mg/kg IM daily, median (range), N=3",0.45 ng/mL
same,concentration at 8 day,"[4]; 0.01 mg/kg IM daily, N=3",2.78 ng/mL
same,concentration at 9 day,"[4]; 0.01 mg/kg IM daily, N=3",1.92 ng/mL
same,concentration at 48 h,"[4]; 0.01 mg/kg IM, median (range), N=3",0.91 ng/mL
same,concentration at 15 day,"[4]; 0.02 mg/kg IM daily, median (range), N=4",0.86 ng/mL
same,concentration at 8 day,"[4]; 0.02 mg/kg IM daily, N=4",5.63 ng/mL
same,concentration at 9 day,"[4]; 0.02 mg/kg IM daily, N=4",5.93 ng/mL
same,concentration at 48 h,"[4]; 0.02 mg/kg IM, median (range), N=4",1.26 ng/mL
same,concentration at 15 day,"[4]; 0.06 mg/kg IM daily, median (range), N=7",1.04 ng/mL
same,concentration at 8 day,"[4]; 0.06 mg/kg IM daily, N=7",9.84 ng/mL
same,concentration at 9 day,"[4]; 0.06 mg/kg IM daily, N=7",9.3 ng/mL
same,concentration at 48 h,"[4]; 0.06 mg/kg IM, median (range), N=7",3.61 ng/mL
same,concentration at 15 day,"[4]; 0.08 mg/kg IM daily, median (range), N=4",3.66 ng/mL
same,concentration at 8 day,"[4]; 0.08 mg/kg IM daily, N=4",15.4 ng/mL
same,concentration at 9 day,"[4]; 0.08 mg/kg IM daily, N=4",16.4 ng/mL
same,concentration at 48 h,"[4]; 0.08 mg/kg IM, median (range), N=4",4.6 ng/mL
same,Tmax,[4]; [9],24 h
same,Tmax,"[4]; 0.02 mg/kg IM, after first dose, median, N=4",24 h
same,half-life,"[4]; 0.02 mg/kg IM, terminal half-life, median (range), N=4, read-out: T1/2 (converted)",70.8 h
same,Tmax,[4]; [10],6 h
same,half-life,"[4]; 0.06 mg/kg IM, terminal half-life, median (range), N=7, read-out: T1/2 (converted)",72.7 h
same,Tmax,[4]; [11],15 h
same,half-life,"[4]; 0.08 mg/kg IM, terminal half-life, median (range), N=4, read-out: T1/2 (converted)",86.6 h
same,Cmax,[4]; [9],1.27 ng/mL
same,AUC(0-t),[4]; [9],47.4 ng·h/mL
same,Cmax,[4]; [12],1.69 ng/mL
same,AUC(0-t),[4]; [12],64.3 ng·h/mL
same,Cmax,[4]; [10],7.29 ng/mL
same,AUC(0-t),[4]; [10],285 ng·h/mL
same,Cmax,[4]; [11],12.1 ng/mL
same,AUC(0-t),[4]; [11],309 ng·h/mL
same,systemic exposure (Cmax and AUC0–48h) versus dose,[4]; dose range 0.01–0.08 mg/kg IM,increased proportionally to rapamycin dose
same,reduction of p/t-S6RP,"[5]; BW and SK cells, rapamycin 100 nM for 4 hours vs untreated controls",approximately 50 ×
same,inhibition of down-stream targets of mTOR,"[5]; canine osteosarcoma cell lines, western blot and ECL",inhibits down-stream targets of mTOR in a dose-dependent fashion
